Our source for the EC50 and IC50 values is patent US5330992A, “1-cyclopropyl-4-pyridyl-quinolinones” (priority 1992, dated 1994).

SMILES strings stand for the structures. Read-outs that look alike come from different tables or passages of the source. Bounds are passed on as bounds.

For one test, the target named is T1, human topoisomerase II (Homo sapiens, UniProt P11388).
T1 construct: Topo II was purified from late log phase suspension cultures of HeLa WIS; endogenous in cells; host or cells: HeLa WIS suspension cultures, late log phase (enzyme purified from the cells)
T1 sequence (P11388 whole entry): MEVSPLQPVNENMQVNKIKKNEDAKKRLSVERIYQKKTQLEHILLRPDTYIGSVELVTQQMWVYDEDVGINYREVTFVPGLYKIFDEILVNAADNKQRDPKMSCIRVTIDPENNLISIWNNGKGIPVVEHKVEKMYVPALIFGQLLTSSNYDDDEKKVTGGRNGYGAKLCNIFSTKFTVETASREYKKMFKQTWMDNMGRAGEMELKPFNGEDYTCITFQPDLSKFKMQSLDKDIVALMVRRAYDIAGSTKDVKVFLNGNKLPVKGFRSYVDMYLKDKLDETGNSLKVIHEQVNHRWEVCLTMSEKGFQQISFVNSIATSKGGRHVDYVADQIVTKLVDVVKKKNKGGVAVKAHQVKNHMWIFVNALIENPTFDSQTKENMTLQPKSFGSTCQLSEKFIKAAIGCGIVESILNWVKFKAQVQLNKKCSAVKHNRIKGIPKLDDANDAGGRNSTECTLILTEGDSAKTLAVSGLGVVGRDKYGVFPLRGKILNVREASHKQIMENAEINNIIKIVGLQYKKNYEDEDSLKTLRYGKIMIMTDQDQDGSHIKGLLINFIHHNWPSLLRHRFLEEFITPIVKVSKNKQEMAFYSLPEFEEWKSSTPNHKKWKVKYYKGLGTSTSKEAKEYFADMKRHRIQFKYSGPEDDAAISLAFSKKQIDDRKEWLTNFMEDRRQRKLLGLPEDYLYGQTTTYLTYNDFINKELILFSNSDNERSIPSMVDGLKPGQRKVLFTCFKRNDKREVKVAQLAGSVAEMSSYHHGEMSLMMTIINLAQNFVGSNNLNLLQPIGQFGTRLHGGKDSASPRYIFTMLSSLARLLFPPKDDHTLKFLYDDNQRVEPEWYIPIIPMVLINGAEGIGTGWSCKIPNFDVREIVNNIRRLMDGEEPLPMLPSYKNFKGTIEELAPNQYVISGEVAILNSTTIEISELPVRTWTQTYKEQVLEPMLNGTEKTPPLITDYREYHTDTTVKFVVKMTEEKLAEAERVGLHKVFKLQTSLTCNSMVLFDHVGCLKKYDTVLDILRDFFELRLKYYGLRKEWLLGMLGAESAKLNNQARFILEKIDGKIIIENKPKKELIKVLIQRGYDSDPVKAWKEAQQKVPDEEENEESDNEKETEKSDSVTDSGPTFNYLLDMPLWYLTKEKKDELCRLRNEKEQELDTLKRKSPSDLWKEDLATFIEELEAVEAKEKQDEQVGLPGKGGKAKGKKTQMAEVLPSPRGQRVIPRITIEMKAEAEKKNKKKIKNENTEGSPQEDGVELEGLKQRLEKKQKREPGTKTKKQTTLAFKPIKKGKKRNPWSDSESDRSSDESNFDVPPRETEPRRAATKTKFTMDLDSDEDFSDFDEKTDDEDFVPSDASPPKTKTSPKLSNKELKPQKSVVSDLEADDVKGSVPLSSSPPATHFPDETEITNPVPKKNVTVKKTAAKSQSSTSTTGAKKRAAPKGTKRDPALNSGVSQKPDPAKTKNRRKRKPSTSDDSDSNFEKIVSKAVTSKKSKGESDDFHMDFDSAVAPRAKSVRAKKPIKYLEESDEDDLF
As to the kind of experiment: Mammalian Topoisomerase II Inhibition Assay (DNA-topo II complex formation). Format: biochemical. Particulars: read-out: TopoII Inh. EC50. The protocol:
Mammalian Topoisomerase II Inhibition Assay Procedure
The assay quantitates the amount of topo II covalently complexed by DNA at equilibrium during a topo II reaction. This assay determines the potential of a compound to stabilize this complex, which potential is closely related to the cytotoxicity of the compound.
Assays (in duplicate) were assembled at 4° C.
4 ng 3' end labeled (^32 P) pBR322 DNA (10^7 DMP/μg)
The assay mix including the test compound was incubated for 20 minutes at 37° C. The reaction was terminated at 37° C. by the addition of 3 μl 10% SDS followed by the addition of 266 μl 10 mM Tris-Cl pH 7.5, 20 μg/ml BSA, 20 μg/ml calf thymus DNA, 1% SDS.
A SDS/protein precipitate was formed by the addition of 28 μl 2.5M KCl followed by chilling on ice for a minimum of 10 minutes. The precipitate was collected and washed with a Brandell cell harvester on a GFB glass fiber filter membrane as follows. The contents of the assay tube were drawn up into the harvester. The tube was then rinsed 7X with 10 mM Tris-Cl pH 7.5, 1 mM EDTA and 100 mM KCl. […] After drying, CPM was determined by liquid scintillation counting with 5 ml Biofluor (NEN Research Products) or Readisafe (Beckman Instruments Inc.) cocktail.
This solution then was diluted 1/5 into water and serially thereafter in either 0.02N sodium hydroxide or 0.04N hydrogen chloride, respectively. The stock solution and serial dilution of the test compound was stored at -20° C. prior to testing.
Screening of test compound--As an initial screen, the test compound was tested at a final concentration of 2, 20 and 200 μg/ml. The compound was then retested at a range of concentrations (usually 2-3X steps) bridging their approximate EC50 's, as estimated by the prescreen.
Controls--A solvent control which indicates the base level of topo II-DNA complex formed in the absence of the test compound was included in each test. A control, in which topo II was omitted, was included for each test compound at the highest drug concentration tested.
Reference Agent--A dose response curve with mAMSA at 0.01, 0.08, 0.16, 0.32, 1.0 and 10 μg/ml was included in each test.
The maximal DNA-topo II complex formed is taken as that equal to that formed at the nearly saturating dose of mAMSA (10 μg/ml).

Test [1] has as its system P388 murine leukemia cells. As to the kind of experiment: Malignant cell cytotoxicity, one-hour exposure (clonogenic survival in soft agar). Particulars: Mus musculus, 1 hr exposure, read-out: IC50 P388 1 hr. exp. Format: cell-based. As to the method: (§1) Examples of compound I having Topo II activity were tested for malignant cell cytotoxicity. In vitro cytotoxicity was assayed by determining cell survival following exposure of P388 murine leukemia cells to a range of test compound concentrations. Cytotoxicity was quantitated following either a one-hour exposure or continuous exposure of P388 cells to test compound.
(§2) Cytotoxicity following a one-hour exposure of cells to drug was assayed by quantitating clonogenic cell survival according to a published procedure [Freshney, R. L. (1987) Culture of Animal Cells. A Manual of Basic Technique. Wiley-Liss Inc., New York, N.Y., pp. 140-144]. Briefly, following drug exposure cells were plated in soft agar and incubated (37°, 5% CO2) for 7-10 days during which time viable cells form visible colonies. Cytotoxicity following continuous exposure of cells to test compound was assayed by quantitating total P388 cells on a Coultier Counter following a 48-hour co-incubation of test compound with cells. P388 cells were maintained in log phase throughout the duration of cytotoxicity assays.
(§3) The percentage of cells surviving relative to an untreated control was graphed as a function of increasing drug concentration.

Test [2] has as its system P388 murine leukemia cells. As to the kind of experiment: Malignant cell cytotoxicity, continuous 48-hour exposure (Coulter Counter). Format: cell-based. The settings on record: Mus musculus, read-out: IC50 P388 cont. exp. As to the method:
as §1, §2, §3

Setting [3] is: EC50 = concentration with activity equal to EC50 of reference mAMSA.

Turning to `COc1cccc(OC)c1Cc1cn(C2CC2)c2c(F)c(-c3cc(C)nc(C)c3)c(F)cc2c1=O` [Example 1, 1-Cyclopropyl-6,8-difluoro-7-[2,6-dimethyl-4-pyridinyl]-3-[2,6-dimethoxyphenylmethyl]-1,4-dihydro-quinolin-4-one], on human topoisomerase II (setting [3]), the EC50 worked out at 37 µM. The IC50 in test [1] was determined as 80 µM; in test [2], 20 µM.

Consider `Cc1cc(-c2c(F)cc3c(=O)c(Cc4ccc(F)cc4O)cn(C4CC4)c3c2F)cc(C)n1` [Example 2, 1-cyclopropyl-6,8-difluoro-7-[2,6-dimethyl-4-pyridinyl]-3-[4-fluoro-2-hydroxyphenylmethyl) -4(H)-quinolone], for which the EC50 on human topoisomerase II (setting [3]) came to 1 µM. Moreover, the concentration for half-maximal inhibition (IC50) in test [1] came out at 1.6 µM.

`Cc1cc(-c2c(F)cc3c(=O)c(Cc4ccccn4)cn(C4CC4)c3c2F)cc(C)n1` [Example 4]: the 50% effective concentration (EC50) at human topoisomerase II (setting [3]) was 12 µM. Also, the IC50 in test [2] came to 4 µM.

For the compound `COc1cc(Cc2cn(C3CC3)c3c(F)c(-c4cc(C)nc(C)c4)c(F)cc3c2=O)cc(OC)c1OC` [Example 5], the EC50 on human topoisomerase II (setting [3]) is more than 190 µM. Also, the IC50 in test [2] came to 18 µM.

As for `Cc1cc(-c2c(F)cc3c(=O)c(Cc4ccc(Cl)cc4)cn(C4CC4)c3c2F)cc(C)n1` [Example 6], the EC50 at human topoisomerase II (setting [3]) was 7.7 µM. Besides, the results for the IC50 in test [1] and in test [2] were 20 µM and 6.1 µM, respectively.

In the case of `COc1ccc(Cc2cn(C3CC3)c3c(F)c(-c4cc(C)nc(C)c4)c(F)cc3c2=O)cc1` [Example 7], the EC50 on human topoisomerase II (* Bell-shaped curve, E = extrapolated) was 14 µM. The IC50 in test [1] was 21 µM; in test [2], 14 µM.

For `COc1ccccc1Cc1cn(C2CC2)c2c(F)c(-c3cc(C)nc(C)c3)c(F)cc2c1=O` [Example 8], the EC50 at human topoisomerase II (setting [3]) came to 11 µM. In addition, the IC50 was found to be 37 µM in test [1] and 6.9 µM in test [2].

As for `COc1cccc(Cc2cn(C3CC3)c3c(F)c(-c4cc(C)nc(C)c4)c(F)cc3c2=O)c1` [Example 9], the EC50 at human topoisomerase II (setting [3]) is 14 µM. In addition, the IC50 in test [1] is 20 µM; in test [2] it was 6.1 µM.

`Cc1cc(-c2c(F)cc3c(=O)c(Cc4ccc5c(c4)OCO5)cn(C4CC4)c3c2F)cc(C)n1` [Example 10]: the EC50 at human topoisomerase II (* Bell-shaped curve) was found to be 34 µM. For the same compound, the IC50 in test [2] was determined as 8.5 µM.

Take `COc1cccc(Cc2cn(C3CC3)c3c(F)c(-c4cc(C)nc(C)c4)c(F)cc3c2=O)c1OC` [Example 11]: the concentration for a half-maximal effect (EC50) at human topoisomerase II (setting [3]) was more than 210 µM. Also, the IC50 in test [2] is 8.9 µM.

Consider `COc1ccc(Cc2cn(C3CC3)c3c(F)c(-c4cc(C)nc(C)c4)c(F)cc3c2=O)c(OC)c1` [Example 12], for which the EC50 at human topoisomerase II (setting [3]) is more than 210 µM. Also, the IC50 in test [1] is more than 200 µM; in test [2], 7.4 µM.

Turning to `Cc1cc(-c2c(F)cc3c(=O)c(Cc4ccncc4)cn(C4CC4)c3c2F)cc(C)n1` [Example 13], the EC50 on human topoisomerase II (setting [3]) was 9.1 µM. Besides, the IC50 in test [2] came out at 2.3 µM.

Take `COc1cc(OC)c(Cc2cn(C3CC3)c3c(F)c(-c4cc(C)nc(C)c4)c(F)cc3c2=O)c(OC)c1` [Example 14]: at human topoisomerase II (setting [3]), the EC50 is more than 190 µM.

As to `Cc1cc(-c2c(F)cc3c(=O)c(Cc4ccccc4C(=O)O)cn(C4CC4)c3c2F)cc(C)n1` [Example 15], the EC50 on human topoisomerase II (setting [3]) is 200 µM.

On to `Cc1cc(-c2c(F)cc3c(=O)c(Cc4ccc[nH]4)cn(C4CC4)c3c2F)cc(C)n1` [Example 16], for which, on human topoisomerase II (setting [3]), the EC50 was 5.1 µM. Further, the half-inhibitory concentration (IC50) in test [1] was 0.93 µM.

On to `COc1ccc(Cc2cn(C3CC3)c3c(F)c(-c4cc(C)nc(C)c4)c(F)cc3c2=O)c(OC)c1C` [Example 17], for which the EC50 at human topoisomerase II (setting [3]) is more than 210 µM.

`CC(=O)Nc1ccc(Cc2cn(C3CC3)c3c(F)c(-c4cc(C)nc(C)c4)c(F)cc3c2=O)cc1` [Example 19]: on human topoisomerase II (setting [3]), the EC50 turned out to be 47 µM.

With `Cc1cc(-c2c(F)cc3c(=O)c(Cc4c(CO)cnc(C)c4O)cn(C4CC4)c3c2F)cc(C)n1` [Example 21], the EC50 at human topoisomerase II (setting [3]) was 4.6 µM.

For `Cc1cc(-c2c(F)cc3c(=O)c(Cc4ccccc4NC(=O)C(F)(F)F)cn(C4CC4)c3c2F)cc(C)n1` [Example 22], at human topoisomerase II (setting [3]), the EC50 stood at 4.7 µM.

As to `COc1ccc(OC)c(Cc2cn(C3CC3)c3c(F)c(-c4cc(C)nc(C)c4)c(F)cc3c2=O)c1` [Example 23], the EC50 on human topoisomerase II (setting [3]) worked out at 20 µM.

Take `Cc1cc(-c2c(F)cc3c(=O)c(Cc4c[nH]cn4)cn(C4CC4)c3c2F)cc(C)n1` [Example 24]: the EC50 at human topoisomerase II (setting [3]) is 1.6 µM. Besides, the IC50 in test [1] turned out to be 0.39 µM.

For the compound `Cc1cc(-c2c(F)cc3c(=O)c(Cc4ccccc4NS(C)(=O)=O)cn(C4CC4)c3c2F)cc(C)n1` [Example 25], at human topoisomerase II (setting [3]), the EC50 came to 3.3 µM.

For the compound `Cc1cc(-c2c(F)cc3c(=O)c(Cc4ccc(O)cc4)cn(C4CC4)c3c2F)cc(C)n1` [Example 27, 1-Cyclopropyl-6,8-difluoro-7-[2,6-dimethyl-4-pyridinyl]-3-[4-hydroxyphenylmethyl]-1,4-dihydro-quinoline-4-one], the EC50 at human topoisomerase II (setting [3]) was determined as 1.2 µM. In addition, the IC50 in test [1] worked out at 1.5 µM; in test [2] it was 0.45 µM.

With `COc1cc(Cc2cn(C3CC3)c3c(F)c(-c4cc(C)nc(C)c4)c(F)cc3c2=O)cc(OC)c1O` [Example 28], at human topoisomerase II (setting [3]), the EC50 is 7.6 µM. The IC50 in test [1] turned out to be 8.2 µM; in test [2], 4.6 µM.

`Cc1cc(-c2c(F)cc3c(=O)c(Cc4cc(O)c(O)c(O)c4)cn(C4CC4)c3c2F)cc(C)n1` [Example 29]: the EC50 on human topoisomerase II (setting [3]) came out at 0.6 µM. The IC50 in test [1] amounted to 3 µM; in test [2], 8 µM.

In the case of `Cc1cc(-c2c(F)cc3c(=O)c(Cc4cccc(O)c4)cn(C4CC4)c3c2F)cc(C)n1` [Example 31], on human topoisomerase II (setting [3]), the EC50 was 1.1 µM. Besides, the figures for the IC50 in test [1] and in test [2] were 2.2 µM and 1.5 µM, respectively.

Consider `Cc1cc(-c2c(F)cc3c(=O)c(Cc4ccc(O)c(O)c4)cn(C4CC4)c3c2F)cc(C)n1` [Example 32], for which the EC50 at human topoisomerase II (setting [3]) was determined as 0.16 µM. The IC50 in test [1] is 0.6 µM; in test [2], 1.4 µM.

`Cc1cc(-c2c(F)cc3c(=O)c(Cc4cccc(O)c4O)cn(C4CC4)c3c2F)cc(C)n1` [Example 34]: the EC50 on human topoisomerase II (setting [3]) amounted to 0.36 µM. In addition, the IC50 was found to be 0.88 µM in test [1] and 0.32 µM in test [2].

For the compound `Cc1cc(-c2c(F)cc3c(=O)c(Cc4c(O)cc(O)cc4O)cn(C4CC4)c3c2F)cc(C)n1` [Example 35], on human topoisomerase II (setting [3]), the EC50 is 0.098 µM. Also, the IC50 in test [1] stood at 0.47 µM.

Turning to `Cc1cc(-c2c(F)cc3c(=O)c(Cc4ccc(O)c(C)c4O)cn(C4CC4)c3c2F)cc(C)n1` [Example 36], the EC50 on human topoisomerase II (setting [3]) amounted to 0.2 µM.

For `Cc1cc(-c2c(F)cc3c(=O)c(Cc4cccc(F)c4O)cn(C4CC4)c3c2F)cc(C)n1` [Example 37], the EC50 at human topoisomerase II (setting [3]) was found to be 0.15 µM. For the same compound, the IC50 in test [1] turned out to be 125 µM.

`Cc1cc(-c2c(F)cc3c(=O)c(Cc4cc(O)ccc4O)cn(C4CC4)c3c2F)cc(C)n1` [Example 38]: the EC50 at human topoisomerase II (setting [3]) worked out at 0.16 µM. Besides, the IC50 in test [1] was 0.36 µM.

As for `Cc1cc(-c2c(F)cc3c(=O)c(Cc4ccc(N)cc4)cn(C4CC4)c3c2F)cc(C)n1` [Example 39], at human topoisomerase II (setting [3]), the EC50 worked out at 7.2 µM.

As for `Cc1cc(-c2c(F)cc3c(=O)c(Cc4ccccc4N)cn(C4CC4)c3c2F)cc(C)n1` [Example 41a], the EC50 on human topoisomerase II (setting [3]) came to 2.1 µM.

Regarding `CC(=O)Nc1ccccc1Cc1cn(C2CC2)c2c(F)c(-c3cc(C)nc(C)c3)c(F)cc2c1=O` [Example 41b], on human topoisomerase II (setting [3]), the EC50 turned out to be 5.1 µM.

For orientation: EC50 means the concentration that produces a half-maximal response. The term IC50 denotes the concentration needed to halve the response being measured.
